What all share (experiment): combination Emax (second highest fraction inhibited in the dose matrix, 72 h); higher = more inhibition; extreme values may be limits of the assay
The test system of one experiment is BT-20 (Breast Carcinoma). Summed up: (§1)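 After 24 hours at 37°C and 5% CO2 in 1536-well plates, cells in DMEM/F12 or RPMI plus 10% FBS received two-drug dose matrices for 72 hours. Viability came from CellTiter-Glo 2.0 luminescence and was scaled as inhibition, anchored at 0 by vehicle wells and at 1 by blank wells. Combination Emax is taken as the second-highest inhibition in the matrix, and Bliss excess as the observed combination effect less EA + EB − EA·EB, with EA and EB the single-agent effects.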

Experiment [1] has as its system DG-75 (Burkitt's Lymphoma). Summed up:
as §1

Experiment [2] relates to EMC-BAC-2 (Non-Small Cell Lung Carcinoma). In a few lines:
as §1

Experiment [3] deals with H-EMC-SS (Chondrosarcoma). In a few lines: as §1
Experiment [4] relates to HSC-2 (Oral Cavity Carcinoma). Summed up:
as §1

Experiment [5] concerns HuP-T3 (Pancreatic Carcinoma). Summed up: as §1
The test system of a further experiment is IMR-5 (Neuroblastoma). In a few lines:
as §1

Experiment [6] concerns KLE (Endometrial Carcinoma). In a few lines: as §1
In experiment [7] the test system is KP-2 (Pancreatic Carcinoma). Summed up:
as §1

In experiment [8] the test system is KU-19-19 (Bladder Carcinoma). In a few lines: as §1
In experiment [9] the test system is KYSE-50 (Esophageal Squamous Cell Carcinoma). Summed up: as §1
A further experiment concerns NB7 (Neuroblastoma). Summed up: as §1
Experiment [10] deals with NCI-H1573 (Lung Adenocarcinoma). In a few lines:
as §1

The test system of experiment [11] is NCI-H2347 (Lung Adenocarcinoma). Summed up: as §1
Experiment [12] deals with NCI-H2405 (Lung Adenocarcinoma). Summed up: as §1
The subject of experiment [13] is NCI-H513 (Other Solid Carcinomas). Summed up:
as §1

Experiment [14] deals with OCUB-M (Breast Carcinoma). In a few lines: as §1
Experiment [15] concerns PFSK-1 (Other Solid Carcinomas). Summed up:
as §1

Experiment [16] has as its system SCC-3 (B-Cell Non-Hodgkin's Lymphoma). In a few lines:
as §1

The next experiment concerns U-87-MG (Glioblastoma). In a few lines: as §1

Experimental findings from the supplement of paper PMC11061612 are described below.

For the compound `Cc1nc(Nc2ncc(C(=O)Nc3c(C)cccc3Cl)s2)cc(N2CCN(CCO)CC2)n1` [Dasatinib] + CC(=O)Nc1cccc(-n2c(=O)n(C3CC3)c(=O)c3c(Nc4ccc(I)cc4F)n(C)c(=O)c(C)c32)c1 [Trametinib] (first compound max 2 µM, 7x7, partner max 1 µM), the “combination Emax” value with BT-20 (Breast Carcinoma) was 0.68; in [1], 0.316; in experiment [2] it was 0.779; in [3] it was 0.684; in experiment [4] it was 0.804; in experiment [5], 0.868. In addition, the “combination Emax” value in the experiment on IMR-5 (Neuroblastoma) turned out to be 0.19; in [6], 0.724; in [7], 0.712; in experiment [8], 1; in experiment [9] it was 0.858; with NB7 (Neuroblastoma), 0.65. The “combination Emax” value in experiment [10] was 0.707; in [11] it was 0.716; in [12], 0.712; in experiment [13], 0.531; in experiment [14] it was 0.0542; in experiment [15], 0.338. In addition, the results for the “combination Emax” value (in [16]; with U-87-MG (Glioblastoma)) were 0.358 and 0.384, respectively.
`CN(CCO)CC[C@H](CSc1ccccc1)Nc1ccc(S(=O)(=O)NC(=O)c2ccc(N3CCC([C@@H](O)c4ccccc4-c4ccc(Cl)cc4)CC3)cc2)cc1S(=O)(=O)C(F)(F)F` [AZD4320] + C[C@@H]1COCCN1C2=NC(=NC(=C2)C3(CC3)[S@](=N)(=O)C)C4=C5C=CNC5=NC=C4 [AZD6738] (first compound max 1 µM, 7x7, partner max 10 µM): the “combination Emax” value came to 0.765 in the experiment with BT-20 (Breast Carcinoma); 0.768 in experiment [1]; 0.632 in experiment [2]; 0.692 in experiment [3]; 0.925 in [4]; 0.706 in experiment [5]. For the same compound, the “combination Emax” value in the experiment on IMR-5 (Neuroblastoma) worked out at 1; in experiment [6], 0.608; in [7], 0.897; in [8], 0.878; in experiment [9], 0.686; with NB7 (Neuroblastoma), 0.691. Besides, the “combination Emax” value in experiment [10] turned out to be 0.634; in experiment [11], 0.656; in experiment [12], 0.415; in experiment [13], 0.452; in [14] it was 0.823; in [15], 0.781. Besides, the “combination Emax” value in experiment [16] was determined as 0.941; in the experiment on U-87-MG (Glioblastoma), 0.501.
In the case of `CC1(C)CCC(CN2CCN(c3ccc(C(=O)NS(=O)(=O)c4ccc(NCC5CCOCC5)c([N+](=O)[O-])c4)c(Oc4cnc5[nH]ccc5c4)c3)CC2)=C(c2ccc(Cl)cc2)C1` [Venetoclax] + C[C@@H](Nc1cc(F)cc(F)c1)c1cc(C(=O)N(C)C)cc2c(=O)cc(N3CCOCC3)oc12 [AZD8186] (first compound max 1 µM, 7x7, partner max 3 µM), the “combination Emax” value turned out to be 0.0992 with BT-20 (Breast Carcinoma); 0.386 in experiment [1]; 0.2 in [2]; 0.323 in experiment [3]; 0.92 in experiment [4]; 0.119 in experiment [5]. For the same compound, the “combination Emax” value in the experiment with IMR-5 (Neuroblastoma) turned out to be 0.276; in experiment [6], 0.41; in experiment [7], 0.0788; in [8] it was 0.0745; in experiment [9], 0.18; in the experiment with NB7 (Neuroblastoma), 0.295. Also, the “combination Emax” value in experiment [10] stood at 0.162; in experiment [11], 0.189; in [12] it was 0.0892; in experiment [13] it was 0.17; in [14], 0.276; in [15] it was 0.194. Further, the figures for the “combination Emax” value (in experiment [16]; with U-87-MG (Glioblastoma)) were 0.207 and 0.44, respectively.
For `NC1(C(=O)N[C@@H](CCO)c2ccc(Cl)cc2)CCN(c2ncnc3[nH]ccc23)CC1` [Capivasertib] + COc1nnc2ccc(N3CCC(c4ccc(OCCN5CCN(C)C(=O)[C@H]5C)cc4)CC3)nn12 [AZD5153] (first compound max 10 µM, 7x7, partner max 1 µM), the “combination Emax” value with BT-20 (Breast Carcinoma) worked out at 0.813; in experiment [1] it was 0.884; in experiment [2], 0.769; in experiment [3], 0.351; in [4], 0.874; in [5], 0.522. The “combination Emax” value stood at 0.857 in the experiment on IMR-5 (Neuroblastoma); 0.639 in [6]; 0.442 in experiment [7]; 0.746 in [8]; 0.525 in experiment [9]; 0.762 in the experiment on NB7 (Neuroblastoma). The “combination Emax” value is 0.562 in [10]; 0.314 in experiment [11]; 0.481 in experiment [12]; 0.416 in [13]; 0.998 in [14]; 0.581 in experiment [15]. In addition, the “combination Emax” value in experiment [16] amounted to 0.827; in the experiment on U-87-MG (Glioblastoma), 0.671.
In the case of `C=CCn1c(=O)c2cnc(Nc3ccc(N4CCN(C)CC4)cc3)nc2n1-c1cccc(C(C)(C)O)n1` [AZD1775] + C1CN(CCC1(C(=O)N[C@@H](CCO)C2=CC=C(C=C2)Cl)N)C3=NC=NC4=C3C=CN4 [Capivasertib] (first compound max 3 µM, partner max 3 µM), the “combination Emax” value in the experiment with BT-20 (Breast Carcinoma) was 0.69; in experiment [1] it was 0.922; in experiment [2], 0.592; in experiment [3], 0.464; in [4] it was 0.757; in [5], 0.655. Besides, the “combination Emax” value with IMR-5 (Neuroblastoma) turned out to be 1; in experiment [6], 0.619; in experiment [7] it was 0.498; in experiment [8] it was 0.856; in experiment [9] it was 0.771; with NB7 (Neuroblastoma), 0.748. Also, the “combination Emax” value stood at 0.604 in experiment [10]; 0.477 in experiment [11]; 0.572 in [12]; 0.494 in experiment [13]; 0.955 in experiment [14]; 0.893 in [15]. For the same compound, the “combination Emax” value was found to be 0.977 in [16] and 0.467 in the experiment on U-87-MG (Glioblastoma).
